Source: patent US6518243B1, “Desleucyl glycopeptide antibiotics and methods of making same” (Trustees of Princeton University, priority 1999, dated 2003)

Experiments:
Assay in all cases: Zone of inhibition screen, 96 well agar array format
Assay type in all cases: cell-based
Design in all cases: scale not given here
[1] = test system: E. faecalis (CL 4877)
Summary of the method: (§1)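 Read-out is antibacterial activity on agar laid out as a 96-well array; every compound went through all strains of the panel.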

[2] = test system: S. aureus (ATCC 29213)
Summary of the method: as §1

[3] = test system: S. epidermidis (ATCC 12228)
Summary of the method: as §1

[4] = zone of inhibition relative to 1 mg/ml stock solution of p-chlorobiphenylvancomycin
[5] = zone of inhibition relative to 1 mg/ml p-chlorobiphenylvancomycin

Structure (SMILES)	zone score, E. faecalis CL 4877 [1, 4]	zone score, S. aureus ATCC 29213 [2, 4]	zone score, S. epidermidis ATCC 12228 [3, 4]	zone score, E. faecalis CL 4877 [1, 5]	zone score, S. aureus ATCC 29213 [2, 5]	zone score, S. epidermidis ATCC 12228 [3, 5]
CC1OC(OC2C(Oc3c4cc5cc3Oc3ccc(cc3Cl)C(O)C3NC(=O)C(NC(=O)C5NC(=O)C(CC(N)=O)NC(=O)C(NC(=O)C5CNCCO5)C(O)c5ccc(c(Cl)c5)O4)c4ccc(O)c(c4)-c4c(O)cc(O)cc4C(C(=O)O)NC3=O)OC(CO)C(O)C2O)CC(C)(NCc2ccc(-c3ccc(Cl)cc3)cc2)C1O (mixture of isomers) [Compound 23]	2	2	2			
CC(=O)OC(CC(=O)NC1C(=O)NC(CC(N)=O)C(=O)NC2C(=O)NC3C(=O)NC(C(=O)NC(C(=O)O)c4cc(O)cc(O)c4-c4cc3ccc4O)C(O)c3ccc(c(Cl)c3)Oc3cc2cc(c3OC2OC(CO)C(O)C(O)C2OC2CC(C)(NCc3ccc(-c4ccc(Cl)cc4)cc3)C(O)C(C)O2)Oc2ccc(cc2Cl)C1O)C[N+](C)(C)C (mixture of isomers) [Compound 118]		2	2			
CSCCC(NC(C)=O)C(=O)NC1C(=O)NC(CC(N)=O)C(=O)NC2C(=O)NC3C(=O)NC(C(=O)NC(C(=O)O)c4cc(O)cc(O)c4-c4cc3ccc4O)C(O)c3ccc(c(Cl)c3)Oc3cc2cc(c3OC2OC(CO)C(O)C(O)C2OC2CC(C)(NCc3ccc(-c4ccc(Cl)cc4)cc3)C(O)C(C)O2)Oc2ccc(cc2Cl)C1O (mixture of isomers) [Compound 175]		2	2			
CC(=O)N1CCCC1C(=O)NC1C(=O)NC(CC(N)=O)C(=O)NC2C(=O)NC3C(=O)NC(C(=O)NC(C(=O)O)c4cc(O)cc(O)c4-c4cc3ccc4O)C(O)c3ccc(c(Cl)c3)Oc3cc2cc(c3OC2OC(CO)C(O)C(O)C2OC2CC(C)(NCc3ccc(-c4ccc(Cl)cc4)cc3)C(O)C(C)O2)Oc2ccc(cc2Cl)C1O (mixture of isomers) [Compound 176]	2	2	2			
CC(NC(N)=O)C(=O)NC1C(=O)NC(CC(N)=O)C(=O)NC2C(=O)NC3C(=O)NC(C(=O)NC(C(=O)O)c4cc(O)cc(O)c4-c4cc3ccc4O)C(O)c3ccc(c(Cl)c3)Oc3cc2cc(c3OC2OC(CO)C(O)C(O)C2OC2CC(C)(NCc3ccc(-c4ccc(Cl)cc4)cc3)C(O)C(C)O2)Oc2ccc(cc2Cl)C1O (mixture of isomers) [Compound 206]				2	2	2
CCC(O)C(=O)NC1C(=O)NC(CC(N)=O)C(=O)NC2C(=O)NC3C(=O)NC(C(=O)NC(C(=O)O)c4cc(O)cc(O)c4-c4cc3ccc4O)C(O)c3ccc(c(Cl)c3)Oc3cc2cc(c3OC2OC(CO)C(O)C(O)C2OC2CC(C)(NCc3ccc(-c4ccc(Cl)cc4)cc3)C(O)C(C)O2)Oc2ccc(cc2Cl)C1O (mixture of isomers) [Compound 286]				2	2	2
CC(=O)NC(Cc1cnc[nH]1)C(=O)NC1C(=O)NC(CC(N)=O)C(=O)NC2C(=O)NC3C(=O)NC(C(=O)NC(C(=O)O)c4cc(O)cc(O)c4-c4cc3ccc4O)C(O)c3ccc(c(Cl)c3)Oc3cc2cc(c3OC2OC(CO)C(O)C(O)C2OC2CC(C)(NCc3ccc(-c4ccc(Cl)cc4)cc3)C(O)C(C)O2)Oc2ccc(cc2Cl)C1O (mixture of isomers) [Compound 324]				2	2	2
CCCCCCCCCCCCCC(=O)NCC(=O)N[C@H]1C(=O)N[C@@H](CC(N)=O)C(=O)N[C@H]2C(=O)N[C@H]3C(=O)N[C@H](C(=O)N[C@@H](C(=O)O)c4cc(O)cc(O)c4-c4cc3ccc4O)[C@H](O)c3ccc(c(Cl)c3)Oc3cc2cc(c3O[C@@H]2O[C@H](CO)[C@@H](O)[C@H](O)[C@H]2O[C@@H]2C[C@@](C)(NCc3ccc(-c4ccc(Cl)cc4)cc3)[C@@H](O)[C@@H](C)O2)Oc2ccc(cc2Cl)[C@H]1O [Compound 22]		2	2			
CSCCC(N)C(O)CC(=O)NC1C(=O)NC(CC(N)=O)C(=O)NC2C(=O)NC3C(=O)NC(C(=O)NC(C(=O)O)c4cc(O)cc(O)c4-c4cc3ccc4O)C(O)c3ccc(c(Cl)c3)Oc3cc2cc(c3OC2OC(CO)C(O)C(O)C2OC2CC(C)(NCc3ccc(-c4ccc(Cl)cc4)cc3)C(O)C(C)O2)Oc2ccc(cc2Cl)C1O (stereo not shown) [Compound 31]		2	2			
CC1OC(OC2C(Oc3c4cc5cc3Oc3ccc(cc3Cl)C(O)C3NC(=O)C(NC(=O)C5NC(=O)C(CC(N)=O)NC(=O)C(NC(=O)CC(N)C(N)=O)C(O)c5ccc(c(Cl)c5)O4)c4ccc(O)c(c4)-c4c(O)cc(O)cc4C(C(=O)O)NC3=O)OC(CO)C(O)C2O)CC(C)(NCc2ccc(-c3ccc(Cl)cc3)cc2)C1O (stereo not shown) [Compound 74]		2	2			
CC1OC(OC2C(Oc3c4cc5cc3Oc3ccc(cc3Cl)C(O)C3NC(=O)C(NC(=O)C5NC(=O)C(CC(N)=O)NC(=O)C(NC(=O)C(N)CCCCNC(N)=O)C(O)c5ccc(c(Cl)c5)O4)c4ccc(O)c(c4)-c4c(O)cc(O)cc4C(C(=O)O)NC3=O)OC(CO)C(O)C2O)CC(C)(NCc2ccc(-c3ccc(Cl)cc3)cc2)C1O (stereo not shown) [Compound 78]		2	2			
C=CCOC(=O)NCCC(N)C(=O)NC1C(=O)NC(CC(N)=O)C(=O)NC2C(=O)NC3C(=O)NC(C(=O)NC(C(=O)O)c4cc(O)cc(O)c4-c4cc3ccc4O)C(O)c3ccc(c(Cl)c3)Oc3cc2cc(c3OC2OC(CO)C(O)C(O)C2OC2CC(C)(NCc3ccc(-c4ccc(Cl)cc4)cc3)C(O)C(C)O2)Oc2ccc(cc2Cl)C1O (stereo not shown) [Compound 93]		2	2			
CC(=O)OCC(=O)NC1C(=O)NC(CC(N)=O)C(=O)NC2C(=O)NC3C(=O)NC(C(=O)NC(C(=O)O)c4cc(O)cc(O)c4-c4cc3ccc4O)C(O)c3ccc(c(Cl)c3)Oc3cc2cc(c3OC2OC(CO)C(O)C(O)C2OC2CC(C)(NCc3ccc(-c4ccc(Cl)cc4)cc3)C(O)C(C)O2)Oc2ccc(cc2Cl)C1O (stereo not shown) [Compound 117]		2	2			
CC1OC(OC2C(Oc3c4cc5cc3Oc3ccc(cc3Cl)C(O)C3NC(=O)C(NC(=O)C5NC(=O)C(CC(N)=O)NC(=O)C(NC(=O)c5cc(=O)[nH]c(=O)[nH]5)C(O)c5ccc(c(Cl)c5)O4)c4ccc(O)c(c4)-c4c(O)cc(O)cc4C(C(=O)O)NC3=O)OC(CO)C(O)C2O)CC(C)(NCc2ccc(-c3ccc(Cl)cc3)cc2)C1O (stereo not shown) [Compound 198]		2	2			
CC1OC(OC2C(Oc3c4cc5cc3Oc3ccc(cc3Cl)C(O)C3NC(=O)C(NC(=O)C5NC(=O)C(CC(N)=O)NC(=O)C(NC(=O)C5CCC(=O)O5)C(O)c5ccc(c(Cl)c5)O4)c4ccc(O)c(c4)-c4c(O)cc(O)cc4C(C(=O)O)NC3=O)OC(CO)C(O)C2O)CC(C)(NCc2ccc(-c3ccc(Cl)cc3)cc2)C1O (stereo not shown) [Compound 227]					2	2
CC1OC(OC2C(Oc3c4cc5cc3Oc3ccc(cc3Cl)C(O)C3NC(=O)C(NC(=O)C5NC(=O)C(CC(N)=O)NC(=O)C(NC(=O)c5ccccc5F)C(O)c5ccc(c(Cl)c5)O4)c4ccc(O)c(c4)-c4c(O)cc(O)cc4C(C(=O)O)NC3=O)OC(CO)C(O)C2O)CC(C)(NCc2ccc(-c3ccc(Cl)cc3)cc2)C1O (stereo not shown) [Compound 238]					2	2
CC1OC(OC2C(Oc3c4cc5cc3Oc3ccc(cc3Cl)C(O)C3NC(=O)C(NC(=O)C5NC(=O)C(CC(N)=O)NC(=O)C(NC(=O)c5ccco5)C(O)c5ccc(c(Cl)c5)O4)c4ccc(O)c(c4)-c4c(O)cc(O)cc4C(C(=O)O)NC3=O)OC(CO)C(O)C2O)CC(C)(NCc2ccc(-c3ccc(Cl)cc3)cc2)C1O (stereo not shown) [Compound 240]					2	2
CC1OC(OC2C(Oc3c4cc5cc3Oc3ccc(cc3Cl)C(O)C3NC(=O)C(NC(=O)C5NC(=O)C(CC(N)=O)NC(=O)C(NC(=O)C=Cc5ccco5)C(O)c5ccc(c(Cl)c5)O4)c4ccc(O)c(c4)-c4c(O)cc(O)cc4C(C(=O)O)NC3=O)OC(CO)C(O)C2O)CC(C)(NCc2ccc(-c3ccc(Cl)cc3)cc2)C1O (stereo not shown) [Compound 244]					2	2
CC1OC(OC2C(Oc3c4cc5cc3Oc3ccc(cc3Cl)C(O)C3NC(=O)C(NC(=O)C5NC(=O)C(CC(N)=O)NC(=O)C(NC(=O)c5ccc(O)cc5)C(O)c5ccc(c(Cl)c5)O4)c4ccc(O)c(c4)-c4c(O)cc(O)cc4C(C(=O)O)NC3=O)OC(CO)C(O)C2O)CC(C)(NCc2ccc(-c3ccc(Cl)cc3)cc2)C1O (stereo not shown) [Compound 271]					2	2
CC1OC(OC2C(Oc3c4cc5cc3Oc3ccc(cc3Cl)C(O)C3NC(=O)C(NC(=O)C5NC(=O)C(CC(N)=O)NC(=O)C(NC(=O)c5nccnc5C(N)=O)C(O)c5ccc(c(Cl)c5)O4)c4ccc(O)c(c4)-c4c(O)cc(O)cc4C(C(=O)O)NC3=O)OC(CO)C(O)C2O)CC(C)(NCc2ccc(-c3ccc(Cl)cc3)cc2)C1O (stereo not shown) [Compound 283]					2	2
CC1OC(OC2C(Oc3c4cc5cc3Oc3ccc(cc3Cl)C(O)C3NC(=O)C(NC(=O)C5NC(=O)C(CC(N)=O)NC(=O)C(NC(=O)C=NNC(N)=O)C(O)c5ccc(c(Cl)c5)O4)c4ccc(O)c(c4)-c4c(O)cc(O)cc4C(C(=O)O)NC3=O)OC(CO)C(O)C2O)CC(C)(NCc2ccc(-c3ccc(Cl)cc3)cc2)C1O (stereo not shown) [Compound 289]					2	2
CC1OC(OC2C(Oc3c4cc5cc3Oc3ccc(cc3Cl)C(O)C3NC(=O)C(NC(=O)C5NC(=O)C(CC(N)=O)NC(=O)C(NC(=O)C5CCCO5)C(O)c5ccc(c(Cl)c5)O4)c4ccc(O)c(c4)-c4c(O)cc(O)cc4C(C(=O)O)NC3=O)OC(CO)C(O)C2O)CC(C)(NCc2ccc(-c3ccc(Cl)cc3)cc2)C1O (stereo not shown) [Compound 316]					2	2
